Experiment [1] has as its target T1, Human immunodeficiency virus type 1 reverse transcriptase (Human immunodeficiency virus 1, UniProt Q72547). The experiment is described as follows: Tested for its ability to inhibit HIV-1 reverse transcriptase strand transfer using wild type HIV-1-RT enzyme.
Experiment [2] concerns the target T1, Human immunodeficiency virus type 1 reverse transcriptase. The experiment is described as follows: Tested for its ability to inhibit HIV-1 reverse transcriptase strand transfer using A17 double mutant HIV-1-RT enzyme.
Experiment [3] has the same target. The experiment is described as follows: Tested for its ability to inhibit HIV-1 reverse transcriptase polymerization using A17 double mutant HIV-1-RT enzyme.
Experiment [4] shares this target. The experiment is described as follows: Inhibition of HIV-1 reverse transcriptase polymerization using wild type HIV-1-RT enzyme.

The structures appear in SMILES notation. pIC50: −log10 of the molar value. A value given as a limit tells only on which side of the number the result lay.

Our source for the IC50 values is ChEMBL document CHEMBL1135056, “Differential inhibition of polymerase and strand-transfer activities of HIV-1 reverse transcriptase” (Bioorg Med Chem Lett, 2002).

Usually pIC50 stands for the negative decadic logarithm of the IC50, by convention in mol/L. The low end stands for a high IC50, the high end for a low IC50. In the case of `O=C(OC1COc2cc(O)cc(O)c2C1)c1ccc(O)c(O)c1` (centres undefined), the pIC50 in experiment [1] is less than 4.00; in experiment [2] it was less than 4.00; in experiment [3], less than 4.00; in experiment [4] it was 4.43.
On to `COc1cc(OC)c2c(c1)OCC(OC(=O)c1cc(O)c(O)c(O)c1)C2` (centres undefined), for which the negative-log IC50 (pIC50) was 6.05 in experiment [1], 5.16 in experiment [2], less than 4.00 in experiment [3] and 4.14 in experiment [4].
On to `O=C(OC1COc2cc(O)ccc2C1)c1cc(O)c(O)c(O)c1` (centres undefined), for which the pIC50 in experiment [1] was 5.12; in experiment [3], 4.51; in experiment [4], 4.44.
With `O=C(OC1COc2ccccc2C1)c1cc(O)c(O)c(O)c1` (centres undefined), the pIC50 is 5.21 in experiment [1], 5.59 in experiment [2], less than 4.00 in experiment [3] and less than 4.00 in experiment [4].
With `O=C(OC1COc2cc(O)cc(O)c2C1)c1ccccc1` (centres undefined), the pIC50 in experiment [1], in experiment [2], in experiment [3] and in experiment [4] was less than 4.00 throughout.
`O=C(OC1COc2cc(O)cc(O)c2C1)c1cc(O)cc(O)c1` (centres undefined) had a pIC50 in experiment [4] of 4.02.
`O=C(OCCc1ccccc1)c1cc(O)c(O)c(O)c1`: the figures for the pIC50 in experiment [1] and in experiment [4] were 5.16 and 4.14, respectively.
As for `O=C(OCCc1ccc(O)c(O)c1)c1cc(O)c(O)c(O)c1`, the pIC50 in experiment [1] is 6.22; in experiment [2] it was 4.98; in experiment [3] it was 5.20; in experiment [4], 4.97.
Regarding `O=C(OCCc1ccc(O)cc1)c1cc(O)c(O)c(O)c1`, the pIC50 in experiment [1] was 5.35; in experiment [4], 5.10.
As for `O=C(OC1COc2cccc(O)c2C1)c1cc(O)c(O)c(O)c1` (centres undefined), the pIC50 in experiment [1] is 5.06; in experiment [3], 4.19; in experiment [4] it was 4.34.
On to `O=C(OC1COc2cc(O)cc(O)c2C1)c1cc(O)c(O)c(O)c1` (centres undefined), for which the pIC50 in experiment [1] is 5.21; in experiment [2], 5.26; in experiment [4] it was 5.42.
